Laboratory results published in patent US20040248914A1, “Method for the treatment of overactive bladder” (priority 2001, published 2004).
Several values for one entry are separate records, joined by “and”; a condition that tells them apart may be missing. Equal values may be shown once.

Tests used:
[1] = molecular target: T1, human NK2 receptors (Homo sapiens, UniProt P21452); assay: In vitro receptor binding assay, [3H]NKA in MEL cell membranes expressing cloned human NK2 receptors; details: inhibition of [3H]NKA binding to cloned hNK2 receptors in MEL cell membranes; read-out: hNK2 (Ki expressed as -Log Molar) (converted)
T1 construct: expressed in transfected cells; host or cells: MEL cells (membranes)
T1 sequence (P21452 1-398): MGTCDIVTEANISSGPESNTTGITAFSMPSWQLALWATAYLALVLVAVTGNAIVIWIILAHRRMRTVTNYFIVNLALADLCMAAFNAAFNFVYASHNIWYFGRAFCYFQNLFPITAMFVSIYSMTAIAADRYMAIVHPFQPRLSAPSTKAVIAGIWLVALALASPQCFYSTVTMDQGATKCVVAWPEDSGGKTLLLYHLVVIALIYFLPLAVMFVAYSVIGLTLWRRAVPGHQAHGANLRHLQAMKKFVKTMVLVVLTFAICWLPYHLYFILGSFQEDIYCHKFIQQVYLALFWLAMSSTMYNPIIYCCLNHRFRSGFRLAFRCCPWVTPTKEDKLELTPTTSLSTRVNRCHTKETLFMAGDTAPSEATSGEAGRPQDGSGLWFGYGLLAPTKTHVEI
Method: (§1) Preparation of Membranes from MEL Cells Transfected with Cloned Human NK1 or NK2 Receptors:
(§2) The cloning of the human lung NK1 and NK2 receptors was achieved as described by Hopkins, et al., Biochem. Biophys. Res. Commun. 180: 1110-1117 (1991), and Graham, et al., Biochem. Biophys. Res. Commun. 177: 8-16 (199.1). Heterologous expression and scale-up growth of MEL cells transfected with human tachykinin receptors was performed as described for NK2 receptors by Aharony, et al., Mol. Pharmacol. 45: 9-19, 1994.
(§3) Membranes from recombinant MEL cells expressing NK1 or NK2 receptors were prepared as described by Hopkins, et al., (1991). Briefly, cells were homogenized at 4° C. (Brinkman PT-20 Polytron, setting 3, with one 15 sec burst on ice), in a buffer consisting of 50 mM Tris-HCl (pH7.4), 5 mM KCl, 120 mM NaCl, 10 mM EDTA and containing several protease inhibitors (1 mM phenylmethylsulfonylfluoride; 0.1 mg/ml soybean trypsin inhibitor, and 1 mM iodoacetamide). The homogenate was centrifuged at 1200×g for 45 min at 4° C. to remove cell debris. The supernatant was centrifuged at 48,000×g for 45 min at 4° C. The pellet was resuspended with a glass-Teflon motorized homogenizer in 30 volumes of ice-cold 50 mM Tris-HCl (pH 7.4) buffer.
(§4) Ligand binding assays with [^3H]NKA in MEL cells expressing cloned NK2 receptors or (^3H]SP in MEL cells expressing cloned NK1 receptors, were conducted generally as described by Aharony, et al., Mol. Pharmacol. 45: 9-19, 1994, Aharony, et al., Neuropeptides 23: 121-130 (1992) and Aharony, et al., J. Pharmacol. Exp. Ther. 259: 146-155 (1991). In brief, incubations were carried out in assay buffer containing membranes, test compounds, and [^3H] ligand (1.0-1.5 nM). In competition experiments, mixtures (0.315 mL) containing various concentrations of competing agents (agonists, antagonists, or vehicle), were incubated at 25° C. for 30 min., with or without 1 μM unlabeled homogenous ligand (NKA or SP), to define non-specific binding. Reactions were initiated by adding membranes (0.1-0.15 mg protein/final concentration) and were conducted in duplicate. Saturation and kinetic experiments were conducted in triplicate. Separation of receptor-bound and free ligand was accomplished by dilution with 1 mL of wash buffer (20 mM Tris-HCl, pH 7.5) followed immediately by vacuum filtration with a total volume of 10 mL of wash buffer (utilizing a Brandel Cell Harvester MB-48R with Whatman GF/B filters presoaked in 0.1% polyethylenimine).
(§5) The ability of compounds disclosed herein to inhibit the binding of [^3H] ligand is shown by the results disclosed in Table 1.

[2] = molecular target: T2, human NK1 receptors (Homo sapiens, UniProt P25103); assay: In vitro receptor binding assay, [3H]SP in MEL cell membranes expressing cloned human NK1 receptors; details: for Ki: inhibition of [3H]SP binding to cloned hNK1 receptors in MEL cell membranes, read-out: hNK1 (Ki expressed as -Log Molar) (converted)
T2 construct: expressed in transfected cells; host or cells: MEL cells (membranes)
T2 sequence (P25103 whole entry): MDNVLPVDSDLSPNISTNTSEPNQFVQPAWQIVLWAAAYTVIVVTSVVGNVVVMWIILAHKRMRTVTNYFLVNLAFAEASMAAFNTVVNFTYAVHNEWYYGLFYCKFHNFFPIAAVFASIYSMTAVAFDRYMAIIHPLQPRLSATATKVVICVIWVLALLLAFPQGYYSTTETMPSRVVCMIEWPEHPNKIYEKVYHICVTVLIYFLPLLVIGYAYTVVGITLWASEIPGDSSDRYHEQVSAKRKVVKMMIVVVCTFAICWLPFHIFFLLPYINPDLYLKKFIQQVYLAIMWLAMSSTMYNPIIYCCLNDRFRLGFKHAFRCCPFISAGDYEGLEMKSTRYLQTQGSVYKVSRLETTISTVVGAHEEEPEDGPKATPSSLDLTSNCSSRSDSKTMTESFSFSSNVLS
Method: as §1, §2, §3, §4, §5

[3] = tested on: BANK-mediated GP bladder contraction; assay: BANK-induced bladder contraction in anesthetized guinea pigs; type: in vivo, guinea pig; details: for Inhibition of BANK-mediated GP bladder contraction (% Inhibition mediated by 52 nmol/kg administered orally): anesthetized female guinea pigs, 52 nmol/kg by gavage 1 hr before BANK, mean ± S.E.M.
Method: BANK-Induced Bladder Contraction in Anesthetized Guinea Pigs:
Female guinea pigs (300-450 g) were anesthetized by intramuscular administration of ketamine/xylazine mixture (3/10 mg/kg, respectively). The jugular vein was catheterized and the distal end of the catheter connected to a syringe for administration of compound where appropriate. Subsequently, the bladder was exposed through a midline abdominal incision, the ureters tied with 4-0 silk suture approximately 2 cm above the bladder, and cut above the ligature to allow drainage from the kidneys. Cannula were passed through the proximal urethra and bladder sphincter into the bladder lumen. The bladder was manually emptied, infused with 0.3 mL saline, and the catheter attached to a Gould p23 ID pressure transducer for recording changes in bladder pressure. An equilibration period of approximately 15 min was allowed for stabilization of the animals following surgical preparation. Thiorphan (10 mg/kg iv) was administered 15 minutes before agonist exposure to inhibit neutral endopeptidase 3.4.24.11.
To establish the oral effect of test compounds, animals were administered the test compounds (52 nmol/kg, 5% PEG 400-saline vehicle) by gavage 1 hr before administration of BANK. Changes in bladder contraction occurring in the presence and absence of test compound were recorded as an increase in intravesical bladder pressure on a Grass 7D Polygraph and expressed as the precentage change in response. Duration of action studies were performed following oral administration of test compounds (52 nmol/kg, 5% PEG 400-saline vehicle) at different times prior to administration of BANK. Responses were calculated as the percentage difference between the response to BANK in the presence of test compound compared with sham-treated controls. For all studies, each animal was administered a single dose of test compound. Experimental results were expressed as the mean plus or minus the Standard Error of the Mean (±S.E.M) percentage change from basal level.
The ability of compounds disclosed herein to inhibit bladder contractions induced with BANK is shown by the results disclosed in Table 1.

Ki [1] [nM]	Ki [2] [nM]	inhibition at 10 µM ([2]; at 10 μM, [3H]SP binding, cloned hNK1 receptors) [%]	Compound	Inhibition of BANK-mediated GP bladder contraction (% Inhibition mediated by 52 nmol/kg administered orally) [3]	Effect on bladder contraction induced by BANK (in words) ([3]; guinea pig, BANK-induced bladder contraction)
1.74	61.7		CN(C[C@@H](CCN1CCC(N2CCCNC2=O)CC1)c1ccc(Cl)c(Cl)c1)C(=O)c1ccc(F)cc1.O=C(O)CC(O)(CC(=O)O)C(=O)O [Example 4, (S)-N-[2-(3,4-Dichlorophenyl)-4-[4-(2-oxoperhydro-pyrimidin-1-yl)piperidino]butyl]-4-fluoro-N-methylbenzamide citrate]	55 ± 11%	
1.38	251		CN(C[C@@H](CCN1CCC(N2CCCNC2=S)CC1)c1ccc(Cl)c(Cl)c1)C(=O)c1ccccc1.Cl.Cl [Example 5, (S)-N-[2-(3,4-Dichlorophenyl)-4-[4-(2-thioxoperhydro-pyrimidin-1-yl)-piperidino]butyl]-N-methylbenzamide dihydrochloride]	−9 ± 39%	increase the bladder contraction induced by BANK

The next lines start with the compound.

Compound	Ki [1] [nM]	Ki [2] [nM]	inhibition at 10 µM ([2]; at 10 μM, [3H]SP binding, cloned hNK1 receptors) [%]	Inhibition of BANK-mediated GP bladder contraction (% Inhibition mediated by 52 nmol/kg administered orally) [3]	Effect on bladder contraction induced by BANK (in words) ([3]; guinea pig, BANK-induced bladder contraction)
CCN1CCCN(C2CCN(CC[C@H](CN(C)C(=O)c3ccccc3)c3ccc(Cl)c(Cl)c3)CC2)C1=O.O=C(O)CC(O)(CC(=O)O)C(=O)O [Example 2, (S)-N-[2-(3,4-Dichlorophenyl)-4-[4-(3-ethyl-2-oxoperhydro-pyrimidin-1-yl)-piperidino]butyl]-N-methylbenzamide citrate]	0.245	112		26 ± 16%	
CCN(C[C@@H](CCN1CCC(N2CCCNC2=O)CC1)c1ccc(Cl)c(Cl)c1)C(=O)c1ccccc1 [Example 3, (S)-N-{2-(3,4-Dichloro-phenyl)-4-[4-(2-oxo-tetrahydro-pyrimidin-1-yl)-piperidin-1-yl]-butyl}-N-ethyl-benzamide free base]	1.41	66.1		64% and 64 ± 6%	
CN(C[C@@H](CCN1CCC(N2CC(C)(C)CNC2=O)CC1)c1ccc(Cl)c(Cl)c1)C(=O)c1ccccc1 [Example 1, (S)-N-[2-(3,4-Dichlorophenyl)-4-[4-(2-oxo-5,5-dimethyl-perhydropyrimidin-1-yl)piperidino]butyl]-N-methylbenzamide]	0.55		90	27 ± 13%	
